Measured values reported in patent US10385005B2, “Compositions and methods for glucose transport inhibition” (OHIO UNIVERSITY, priority 2010, dated 2019).

What was measured:
[1] = system: HeLa cells; test: Glucose uptake assay (3H 2-DG), HeLa; assay type: cell-based, human
Method: Cells were treated with α-PGG for 20 minutes before ^3H-labeled 2-DG. […] Samples: 1. Mock; 2. […] WZB-25 (30 μM); 5. WZB-26 (30 μM); and 6. WZB-27 (30 μM). Compounds 1a and 2a were initially prepared as potential anti-diabetic analogs of α-PGG (FIG. 1). Given the tight SAR of this class of compounds, it was hypothesized that a more rigid scaffold (i.e., a benzene ring) might enhance the activity. […] Error bars in FIG. 8 represent standard deviations of the measurements. Samples were done in triplicates and the experiment was repeated three times.

[2] = system: RKO and RKO E6 cell lines; test: Cell killing assay in RKO and RKO E6 cells; assay type: cell-based, human; conditions: high vs low p53
Text: A. Cell viability assay in RKO colon cancer cells. RKO cells contain high levels of p53 while RKO E6 cells contain much lower levels of p53. […] RKO cells have higher level of p53 while RKO-E6 is p53 deficient. ***p<0.001, **p<0.01. C.

[3] = system: PARP protein (Caspase 3 substrate) in H1299 lung cancer cells; test: PARP cleavage assay, H1299; assay type: cell-based, human
Text: A. Cell viability assay in RKO colon cancer cells with α-PGG, W25 (WZB-25), W27 (WZB-27), and C7 treatments. RKO cells contain high levels of p53 while RKO E6 cells contain much lower levels of p53. B. Apoptosis assay in H1299 lung cancer cells using cleaved PARP protein (89 kDa) as an indicator for Caspase 3 since PARP is a substrate of activated Caspase 3.
To determine if anti-cancer compounds W25 and W27 kill cancer cells using a p53 dependent or a p53-independent pathway, a cell killing assay was performed in RKO and RKO E6 cell lines. The difference between the two cell lines is that RKO cells contain much higher levels of p53 than RKO E6 cells.
Cells were harvested from plates, re-suspended with 3× sample buffer, and boiled for 5 min. Approximately […] of protein extract was loaded after protein concentration measurement by Pierce bicinchoninic acid (BCA) protein assay (Pierce Biotechnology, Inc. Rockford, Ill.). Samples were run on a 10% Bio-Tris NuPAGE gel (Invitrogen) and transferred to a polyvinylidene difluoride membrane (PVDF, Biorad). The membrane was incubated with antibodies specific to p53, or PARP, or β-actin. Specific protein bands were visualized after the development of film. Antibodies for p53 were purchased from Santa Cruz Biotechnology, Inc. (Santa Cruz, Calif., USA). […]

[4] = system: RKO (colon), HeLa (cervical), and MCF-7 (breast) human cancer cells; test: Cell viability (MTT) assay of α-PGG treated cancer cells; assay type: cell-based; conditions: FIG. 5A
Text: (§1) A. α-PGG treatment led to 70-80% reduction of cell viability as measured by a cell viability (MTT) assay. […] C. α-PGG treatment of HeLa cells led to a decrease in G1 phase cells but a significant increase (˜3-fold) in apoptotic cells as determined by an antibody-coupled flow cytometry study.

[5] = system: HeLa cells; test: Apoptosis (ELISA) assay; assay type: cell-based, human; conditions: FIG. 5B
[6] = system: HeLa cells; test: Antibody-coupled flow cytometry study; assay type: cell-based, human; conditions: FIG. 5C
Text: as §1

[7] = system: H1299 cells; test: Standard glucose uptake assay, H1299; assay type: cell-based, human; conditions: for glucose uptake inhibition compared with fasentin / Glucose transport inhibition (%): H1299; for glucose uptake inhibition compared with fasentin: all compounds 30 μM, FIG. 22A
Method: (§2) Briefly, H1299 cancer cells were treated with or without the compounds (30 μM) in triplicates for 10 min before the glucose uptake assay. Cellular glucose uptake was measured by incubating cells in the glucose-free KRP buffer with […] [^3H]2-deoxyglucose (specific activity, 40 Ci/mmol) for 30 min in the absence or presence of compounds. After the cells were washed with ice-cold PBS and lysed by 0.2 N NaOH, the cell lysates were transferred to scintillation counting vials and the radioactivity in the cell lysates was quantified by liquid scintillation counting. Cell growth measurements were performed using an MTT assay in hexads in a 96-well tissue culture plate with 5,000 cells plated in each well. The cells were incubated in presence or absence of the compounds (30 μM) for 48 h. After incubation, cell viabilities were assayed using a 96-well SPECTRAMAX™ absorbance/fluorescence plate reader (Molecular Devices).
Cancer cells are treated with or without the compounds for 10 min before the glucose uptake assay. Cellular glucose uptake will be measured by incubating cells in glucose-free RPMI 1640 with […] [^3H]2-deoxyglucose (specific activity, 40 Ci/mmol) for 30 min in the absence and presence of compounds. After the cells are washed with ice-cold PBS and lysed, the cell lysates will be transferred to scintillation counting vials and the radioactivity in the cell lysates is quantified by liquid scintillation counting.

[8] = system: H1299 lung cancer cells; test: MTT cell growth / viability assay, H1299; assay type: cell-based, human; conditions: for % cell death: concentration = IC50 for each compound
Method: as §2
(§3) MTT assays are performed by the following well-established method. In a 96 well tissue culture plate 10,000 cells are plated in each well. The cells are incubated in presence or absence of the compounds for 18 h. 3-(4,5-Dimethylthiazol-2-yl)-2,5-diphenyltetrazolium bromide (MTT) is dissolved in PBS (10 mg/ml) and filter sterilized. Three hours before the end of the incubation 20 μL of MTT solution is added to each well containing cells in a 96-well plate. The plate is incubated in an incubator at 37° C. for 3 h. Media is aspirated gently and 200 μL of DMSO is added to each well to dissolve formazan crystals. The absorbance is measured at 550 nm for cell viability.

[9] = system: three different cancer cell lines; conditions: all compounds 60 μM, FIG. 22B
Method: Known basal glucose compound fasentin and compound inhibitors generated in house were compared side by side in both glucose uptake assay and cell viability (MTT) assay. Glucose uptake or cell viability of mock treated samples was arbitrarily assigned a value of 100%. A. Glucose uptake assay in H1299 cancer cells. Concentration for all compounds was 30 μM. B. Cell viability assays in three different cancer cell lines. Concentration for all compounds was 60 μM.
Fasentin is a published inhibitor of basal glucose transport and known GLUT1 inhibitor.

[10] = system: NL20 normal lung cells; test: MTT cell death assay, NL20; assay type: cell-based, human; conditions: concentration = IC50 for each compound
Text: (§4) Comparative assays using WZB-27, WZB-115, as well as two known anticancer drugs, cisplatin and taxol, were completed. In Table 4, the percent cell death in cancer cell lines as well as normal cell lines is shown. […] Comparing the breast cancer cell line MCF7, WZB-27 and WZB-115 kill somewhat fewer cells relative to taxol but more than cisplatin. Both WZB-27 and WZB-115 kill fewer of the normal breast cell line MCF12A than taxol or cisplatin. WZB-27 kills fewer of the normal breast cell line MCF12A than taxol or cisplatin while WZB-115 kills no more normal cells than either cisplatin or taxol.
as §3

[11] = system: MCF7 breast cancer cells; test: MTT cell death assay, MCF7; assay type: cell-based, human; conditions: concentration = IC50 for each compound
Text: as §4, §3

[12] = system: MCF12A normal breast cells; test: MTT cell death assay, MCF12A; assay type: cell-based, human; conditions: concentration = IC50 for each compound
Text: as §4, §3

[13] = system: basal glucose transport; conditions: known glucose transport inhibitors, positive controls; cited from earlier work
[14] = system: RKO cells; test: Glucose uptake assay (3H 2-DG), RKO; assay type: cell-based, human; conditions: 30 μM
Method: (§5) Cells were treated with α-PGG for 20 minutes before ^3H-labeled 2-DG. Thirty minutes after the addition of 2-DG, cells were harvested, lysed, and counted for their respective glucose uptake. Samples: 1. Mock; 2. […] WZB-25 (30 μM); 5. WZB-26 (30 μM); and 6. WZB-27 (30 μM).
(§6) Compounds 1a and 2a were initially prepared as potential anti-diabetic analogs of α-PGG (FIG. 1). Given the tight SAR of this class of compounds, it was hypothesized that a more rigid scaffold (i.e., a benzene ring) might enhance the activity.

[15] = system: MCF-7 cells; test: Glucose uptake assay (3H 2-DG), MCF-7; assay type: cell-based, human; conditions: 30 μM
Method: as §5, §6

[16] = system: insulin-like glucose uptake stimulatory activity; test: Insulin-like activity of PGG analogs; assay type: cell-based

For `O=C(O[C@@H]1[C@@H](OC(=O)c2cc(O)c(O)c(O)c2)[C@@H]2OC[C@@H](O2)[C@H]1OC(=O)c1cc(O)c(O)c(O)c1)c1cc(O)c(O)c(O)c1` [WZB-25], which “dose dependence of basal glucose transport inhibition” value ([1]; HeLa, FIG. 8) is on record?
The value was “dose-dependent manner”.

And the “cell killing / viability RKO vs RKO E6” value [2]?
The value was “killed about the same amounts of RKO cells and RKO E6 cells”.

What about the PARP cleavage [3] of the same compound?
The PARP cleavage was “cleaved into a 89 kDa protein”.

Which results are given for `O=C(OC[C@H]1O[C@@H](OC(=O)c2cc(O)c(O)c(O)c2)[C@H](OC(=O)c2cc(O)c(O)c(O)c2)[C@@H](OC(=O)c2cc(O)c(O)c(O)c2)[C@@H]1OC(=O)c1cc(O)c(O)c(O)c1)c1cc(O)c(O)c(O)c1` [α-PGG, penta-galloyl-glucose]?
concentration at which glucose transport inhibition starts ([1]; HeLa, 20 min preincubation): 5 µM; reduction of cell viability [4]: 70-80%; increase in apoptosis [5]: more than 2 fold; increase in apoptotic cells [6]: ~3 fold

With `Oc1cccc(COc2cccc(OCc3cccc(O)c3)c2OCc2cccc(O)c2)c1` [WZB-131] as the compound, how does the “glucose uptake inhibition compared with fasentin” value [7] read?
Its value is “stronger inhibition than fasentin”.

And the “Glucose transport inhibition (%)” value ([7]; Table 12)?
Its value is 95.0 ± 1.6%.

And the “Cell growth inhibition (%)” value ([8]; Table 12)?
Its value is 12.9 ± 2.6%.

And the “cancer cell death compared with fasentin” value [9]?
Its value is “more cancer cell death than fasentin”.

Which “% cell death” value [8] does the source give for `N.N.[Cl][Pt][Cl]` [Cisplatin, cisplatin] here?
The value was 26.4 ± 3.8%.

And the “% cell death” value [10]?
Its value is 58.4 ± 7.0%.

What about the “% cell death” value [11] of the same compound?
The value was 27.0 ± 1.9%.

And the “% cell death” value [12]?
The value was 69.6 ± 2.9%.

What does the source list for `CC(=O)O[C@H]1C(=O)[C@@]2(C)[C@H]([C@H](OC(=O)c3ccccc3)[C@]3(O)C[C@H](OC(=O)[C@H](O)[C@@H](NC(=O)c4ccccc4)c4ccccc4)C(C)=C1C3(C)C)[C@]1(OC(C)=O)CO[C@@H]1C[C@@H]2O` [Taxol, taxol]?
% cell death [8]: 45.6 ± 4.9%; % cell death [10]: 53.8 ± 4.2%; % cell death [11]: 61.4 ± 7.1%; % cell death [12]: 73.7 ± 5.6%

Which results are given for `Oc1cccc(COc2ccc(Cl)cc2OCc2cccc(O)c2)c1` [WZB-133]?
glucose uptake inhibition compared with fasentin [7]: stronger inhibition than fasentin; Glucose transport inhibition (%) ([7]; Table 12): 91.2 ± 0.8%; Cell growth inhibition (%) ([8]; Table 12): 14.3 ± 2.7%; cancer cell death compared with fasentin [9]: more cancer cell death than fasentin

Which IC50 [13] does the source give for `O=c1cc(-c2ccc(O)cc2)oc2cc(O)cc(O)c12` [apigenin] here?
The IC50 was ≥ 60 µM.

For `CC(=O)CC(=O)Nc1ccc(Cl)c(C(F)(F)F)c1` [Fasentin, fasentin], which IC50 [13] is on record?
The IC50 was ≥ 50 µM.

What does the source list for `COc1cccc(OC(=O)c2cc(O)c(O)c(O)c2)c1OC(=O)c1cc(O)c(O)c(O)c1` [Compound 1a]?
Glucose transport inhibitory activity (%) ([1]; Hela, 30 μM): 46.3 ± 3.3%; Glucose transport inhibitory activity (%) [14]: 57.2 ± 4.4%; Glucose transport inhibitory activity (%) [15]: 33.0 ± 0.5%; Glucose transport inhibition (%) ([7]; Table 2, 30 μM, untreated cells 0% inhibition): 58.4±6.3%; % inhibition of basal glucose transport ([7]; Table 3, 30 μM in H1299 cells, listed as WZB-26): 84.0 ± 1.9%; Cell growth inhibition (%) ([8]; Table 2, 30 μM, 48 h): 36.0±6.1%; insulin-like activity [16]: without any insulin-like activity
